Assay [1] has as its target T1, Epsilon protein (His6-Epsilon) (Streptococcus pyogenes, UniProt Q57231).
T1 construct: His6 (N); made in house; host or cells: E. coli BL21 (DE3)
T1 sequence (Q57231 1-90): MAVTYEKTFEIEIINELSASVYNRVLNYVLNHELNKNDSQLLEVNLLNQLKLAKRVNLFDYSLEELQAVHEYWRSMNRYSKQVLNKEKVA
Briefly: Fluorescence polarization (FP) direct binding assay of fluorescein-labeled peptides to Epsilon. As for the experimental part:
Binding affinities of the fluorescein-labeled peptides Fluo-(I–III) with Epsilon protein were determined in a fluorescence polarization (FP) assay. For the purpose, 10 nM solutions of each fluorescein-labeled peptide containing different concentrations of Epsilon (from 5 nM to 7.5 µM) were irradiated with polarized light at the excitation wavelength of 470 nm and the polarization of the emitted light was recorded in mP at […] (see Section 4).
Figure 3 Dose-response curve for the binding of Fluo-(I–II) to the Epsilon protein. The fluorescent-labeled peptides Fluo-(I–II) at a concentration of 10 nM were treated with increasing concentrations of Epsilon (from 0.05 nM to 2.5 µM) in 10 mM HEPES assay buffer, pH 7.5, with 0.1% Tween-20. Values are plotted as the means ± standard deviation (n = 3) from three independent experiments.
For fluorescence polarization measurements, peptides were dissolved in DMSO at 10 mM and diluted in 10 mM HEPES (pH 7.5) containing 0.1% Tween-20. The assay was conducted on untreated black 384-well microtiter plates (low volume, non-binding surface, round bottom, non-sterile black polystyrene, Corning B.V. Life Sciences, Nr. 3676, Kennebunk, ME, USA) in a final volume of 10 µL, using 10 mM HEPES (pH 7.5) with 0.1% Tween-20 as a buffer. The final DMSO proportion in the assay was less than 0.1%. The measurements were performed on a SAFIRE II (Tecan) microplate reader, using an excitation wavelength of 470 nm and emission wavelength of 525 nm. The final assay mixtures contained 5 µL fluorescein-labeled peptide (furnishing a final assay concentration of 10 nM), and 5 µL of increasing amounts of Epsilon protein (final concentrations ranging from 0.05 nM to 5 µM). The negative controls comprised 5 µL fluorescein-labeled peptide (maintaining a final assay concentration of 10 nM) and 5 µL 10 mM HEPES buffer (pH 7.5) containing 0.1% Tween-20. To avoid protein aggregation, Tween-20 (0.1% final concentration) was used as a detergent in all experiments. After adding the fluorescent peptide, the plates were centrifuged (2000 min^−1, 3 min) and shaken briefly (2000 rpm for 10 min at room temperature), and polarization of the emitted fluorescence was directly recorded. In every case, the well containing only the fluorescein-labeled peptide was subtracted from the assay well as background. The polarization values (mP) were plotted as a function of the logarithm of the protein concentration. […] All of the experiments were carried out in duplicate in three independent experiments, and the results are expressed as the mean ± standard deviation (SD).
(Fluorescence polarisation rises when a labelled molecule tumbles more slowly, as on binding a larger partner.)

Assay [2] concerns the target T1, Epsilon protein (His6-Epsilon). Briefly: Competitive FP binding assay: acetylated peptides displace fluorescein-labeled peptide from Epsilon. The following applies: unlabeled peptide 0.01-100 µM, 10 mM HEPES pH 7.5, 0.1% Tween-20, 384-well, duplicates in three independent experiments ± SD. An excerpt: The fluorescent high-affinity peptide ligands could be the basis for an especially economic and reliable high-throughput assay, if the fluorescence polarization read-out can be used for the screening of potential ligands that are able to bind to Epsilon in a competitive binding assay. For this purpose, we utilized the unlabeled peptides Ac-Ia and Ac-IIb containing the same amino acid sequence as the initial peptides but with their N-terminus modified by the introduction of an acetyl group. The competitive binding assays were performed by using appropriate amounts of Epsilon protein based on the binding affinity, expressed in terms of the KD value, for the labeled peptides Fluo-Ia and Fluo-IIb. In both cases, the protein concentration was set to the KD value and 5-fold the KD value to study the influence of the protein concentration on the IC50-value of every acetylated peptide. Thus, the Epsilon protein (100 nM or 500 nM final concentration) was treated with Fluo-Ia or Fluo-IIb (10 nM final concentration). After incubation, each mixture was treated with different concentrations of the unlabeled peptides Ac-Ia and Ac-IIb, ranging from 0.01 to 100 µM. […] The ability to identify active compounds (hits) from a particular high-throughput screening (HTS) assay depends largely on the suitability or quality of the assay conditions used in the screening. […]
Figure 5 Competitive binding of the fluorescein-labeled peptides Fluo-Ia and Fluo-IIb to the Epsilon protein in 384-well plates. […] Fluorescence polarization was measured on a SAFIRE II (Tecan, Crailsheim, Germany) microplate reader, using an excitation wavelength of 470 nm and emission wavelength of 525 nm. […]
For the competitive binding assays, unlabeled peptides containing the same amino acid sequence as the previous one but with the N-terminal end modified by the introduction of acetyl group were used. […] The measurements were performed on a SAFIRE II microplate reader (Tecan), using an excitation wavelength of 470 nm and emission wavelength of 525 nm. […]

Setting [3] is: 10 nM fluorescein-labeled peptide titrated with Epsilon, 10 mM HEPES pH 7.5, 0.1% Tween-20, no NaCl, ex 470 nm/em 525 nm, EC50 taken as KD (Q close to 1), three independent experiments, n = 3 ± SD, SD, read-out: Binding constant KD.

Like-named read-outs stand apart in the source and are kept apart here. Ends that are not written are not given here. Peptide text beside a SMILES is read from it. * marks the point of attachment. 5FAM = O=C1OC2(c3ccc(O)cc3Oc3cc(O)ccc32)c2ccc(C(=O)*)cc21

Turning to `CC(C)C[C@H](NC(=O)c1ccc2c(c1)C(=O)OC21c2ccc(O)cc2Oc2cc(O)ccc21)C(=O)N[C@@H](CCCNC(=N)N)C(=O)N[C@@H](CO)C(=O)N[C@@H](C)C(=O)N[C@@H](CCC(=O)O)C(=O)N[C@@H](Cc1ccccc1)C(=O)N[C@@H](CCC(=O)O)C(=O)N[C@@H](CCC(=O)O)C(=O)N[C@H](C(=O)N[C@@H](CCC(N)=O)C(=O)O)[C@@H](C)O` [Fluo-IIa] (5FAM-LRSAEFEETQ-OH), in assay [1] (setting [3]), the Kd turned out to be 169 ± 16 nM.

Consider `CC(C)C[C@H](NC(=O)[C@H](CO)NC(=O)[C@@H](NC(=O)[C@H](CC(=O)O)NC(=O)CNC(=O)c1ccc2c(c1)C(=O)OC21c2ccc(O)cc2Oc2cc(O)ccc21)[C@@H](C)O)C(=O)N[C@@H](CCCNC(=N)N)C(=O)N[C@@H](CO)C(=O)N[C@@H](C)C(=O)N[C@@H](CCC(=O)O)C(=O)N[C@@H](Cc1ccccc1)C(=O)N[C@@H](CCC(=O)O)C(=O)N[C@@H](CCC(=O)O)C(=O)N[C@H](C(=O)N[C@@H](CCC(N)=O)C(=O)O)[C@@H](C)O` [Fluo-IIb] (5FAM-GDTSLRSAEFEETQ-OH), for which, in assay [1] (setting [3]), the Kd was found to be 99.5 ± 12.2 nM.

In the case of `CC(C)C[C@H](NC(=O)[C@H](CO)NC(=O)[C@@H](NC(=O)[C@H](CC(=O)O)NC(=O)CNC(=O)[C@H](CO)NC(=O)CNC(=O)c1ccc2c(c1)C(=O)OC21c2ccc(O)cc2Oc2cc(O)ccc21)[C@@H](C)O)C(=O)N[C@@H](CCCNC(=N)N)C(=O)N[C@@H](CO)C(=O)N[C@@H](C)C(=O)N[C@@H](CCC(=O)O)C(=O)N[C@@H](Cc1ccccc1)C(=O)N[C@@H](CCC(=O)O)C(=O)N[C@@H](CCC(=O)O)C(=O)N[C@H](C(=O)N[C@@H](CCC(N)=O)C(=O)O)[C@@H](C)O` [Fluo-IIc] (5FAM-GSGDTSLRSAEFEETQ-OH), the Kd in assay [1] (setting [3]) amounted to 134 ± 15 nM. Consider `CC[C@H](C)[C@H](NC(=O)[C@H](CC(C)C)NC(=O)[C@H](CCC(=O)O)NC(=O)[C@H](CCC(=O)O)NC(=O)[C@H](Cc1c[nH]cn1)NC(=O)[C@H](CC(N)=O)NC(=O)[C@H](CC(=O)O)NC(=O)[C@H](CC(N)=O)NC(=O)[C@H](CC(C)C)NC(=O)c1ccc2c(c1)C(=O)OC21c2ccc(O)cc2Oc2cc(O)ccc21)C(=O)N[C@@H](CCC(N)=O)C(=O)O` [Fluo-Ia] (5FAM-LNDNHEELIQ-OH), for which the Kd in assay [1] (10 nM Fluo-Ia, 10 mM HEPES pH 7.5, 0.1% Tween-20, plus 10 mM NaCl, read-out: Binding constant in presence of 10 mM NaCl) is 105 nM; in assay [1] (setting [3]), 74.5 ± 10.5 nM.

Take `CC[C@H](C)[C@H](NC(=O)[C@H](CC(C)C)NC(=O)[C@H](CCC(=O)O)NC(=O)[C@H](CCC(=O)O)NC(=O)[C@H](Cc1c[nH]cn1)NC(=O)[C@H](CC(N)=O)NC(=O)[C@H](CC(=O)O)NC(=O)[C@H](CC(N)=O)NC(=O)[C@H](CC(C)C)NC(=O)[C@H](CCCNC(=N)N)NC(=O)[C@H](CC(N)=O)NC(=O)[C@H](CCC(=O)O)NC(=O)[C@H](Cc1ccccc1)NC(=O)c1ccc2c(c1)C(=O)OC21c2ccc(O)cc2Oc2cc(O)ccc21)C(=O)N[C@@H](CCC(N)=O)C(=O)O` [Fluo-Ib] (5FAM-FENRLNDNHEELIQ-OH): the Kd in assay [1] (setting [3]) was found to be 89.5 ± 13.9 nM.

As for `CC[C@H](C)[C@H](NC(=O)[C@H](CC(C)C)NC(=O)[C@H](CCC(=O)O)NC(=O)[C@H](CCC(=O)O)NC(=O)[C@H](Cc1c[nH]cn1)NC(=O)[C@H](CC(N)=O)NC(=O)[C@H](CC(C)C)NC(=O)[C@H](CC(N)=O)NC(=O)[C@H](CC(=O)O)NC(=O)c1ccc2c(c1)C(=O)OC21c2ccc(O)cc2Oc2cc(O)ccc21)C(=O)N[C@@H](CCC(N)=O)C(=O)O` [Fluo-Ie] (5FAM-DNLNHEELIQ-OH; C-terminus assumed), the “ΔmP (dynamic range of polarization)” value in assay [1] (10 nM fluorescein-labeled peptide titrated with Epsilon, 10 mM HEPES pH 7.5, 0.1% Tween-20) turned out to be 115. Also, the Kd in assay [1] (setting [3]) turned out to be 175 ± 8.9 nM. For the molecule Ac-GDTSLRSAEFEETQ [Ac-IIb], the half-inhibitory concentration (IC50) in assay [2] (500 nM Epsilon, 10 nM Fluo-IIb, read-out: IC50, competition with Fluo-IIb, 500 nM Epsilon) was found to be 15300 ± 2500 nM. Consider Ac-LNDNHEELIQ [Ac-Ia], for which the 50% inhibitory concentration (IC50) was 18600 ± 4640 nM in assay [2] (100 nM Epsilon, 10 nM Fluo-Ia, read-out: IC50, competition with Fluo-Ia, 100 nM Epsilon) and 51800 ± 7400 nM in assay [2] (500 nM Epsilon, 10 nM Fluo-Ia, read-out: IC50, competition with Fluo-Ia, 500 nM Epsilon).

The IC50 is the midpoint of a concentration-inhibition curve.
